Assay results as given in patent US10682316B2 (NOVA SOUTHEASTERN UNIVERSITY, priority 2010, dated 2020).
Several values for one entry are separate records, joined by “and”; a condition that tells them apart may be missing. Identical values can stand only once. Entries after “also recorded” stand apart in the source; their conditions may differ. Like-named read-outs stand apart in the source and are kept apart here.

Key:
[1] = Visual observation of discoloration/stability after processing; type: physicochemical; conditions: epinephrine bitartrate compared with epinephrine base
Excerpt: The main problem was discoloration (a brown color formed) due to degradation.

[2] = Particle size measurement before and after size reduction (Mastersizer, NiComp 370, Zetasizer); type: physicochemical; conditions: epinephrine base
Protocol: These techniques involve the use of oversaturated solutions of various solvents, particularly water and isopropanol, at various temperatures and pressures ranging from about 8,000 psi to 30,000 psi and to about 8.3° to 43.3° C. under various passes. […] The particles were lyophilized (freeze-dried) using a bench top lyophilizer (ART Inc.).

Row | Structure (SMILES) | Stability / discoloration under fabrication conditions (nanomilling) [1] | Amount Dissolved % (solubility in acetone) [%] | Amount Dissolved % (solubility in acetonitrile) [%] | Amount Dissolved % (solubility in choloroform) [%] | Amount Dissolved % (solubility in dichloromethane (DCM)) [%] | Amount Dissolved % (solubility in ethyl acetate) [%] | Amount Dissolved % (solubility in hexane) [%] | Amount Dissolved % (solubility in isopropyl alcohol) [%] | Amount Dissolved % (solubility in methanol) [%] | Amount Dissolved % (solubility in tetrahydrofuran (THF)) [%] | Amount Dissolved % (solubility in water) [%] | mean±SD size before size reduction ([2]; Mastersizer (FIG. 3)) [μm] | Size Before Fabrication (nm) ([2]; Mastersizer, three measurements and mean)
1 | CNC[C@H](O)c1ccc(O)c(O)c1 [Epinephrine Bit, epinephrine bitartrate] | more stable than the epinephrine base; also recorded: did not show any discoloration | 1.56 | 0.77 | 0.09 | 0.00 | 0.63 | 0.03 | 0.62 | 10.45 | 7.76 |  |  | 
2 | CNC[C@H](O)c1ccc(O)c(O)c1 [Epinephrine Base, epinephrine] |  |  |  |  |  |  |  |  |  |  | 2.67 | 32.91±0.33 | 33030 nm and 32530 nm and 33160 nm
